Non-standard residues stand in square brackets, D forms with d. Residues, ends and D or L forms follow the SMILES beside them. *: point of attachment. Nle = CCCC[C@H](N)C(=O)O; Cbz = O=C(OCc1ccccc1)*
B1: HA-tagged Herp(-bind) (other)
chain: MESETEPEPVTLLVKSPNQRHRDLELSGDRGWSVGHLKAHLSRVYPERPRPEDQRLIYSGKLLLDHQCLRDLLPKQEKRHVLHLVCNVKSPSKMPEINAKVAESTEEPAGSNRGQYPEDSSSDGLRQREVLRNLSSPGWENISRPEAAQQAFQGLGPGFSAQEIPVVSAPAPAPIHNQFPAENQPANQNAAPQVVVNPGANQNLRMNAQGGPIVEEDDEINRDWLDWTYSAATFSVFLSILYFYSSLSRFLMVMGATVVMYLHHVGWFPFRPRPVQNFPNDGPPPDVVNQDPNNNLQEGTDPETEDPNHLPPDRDVLDGEQTSPSFMSTAWLVFKTFFASLLPEGPPAIAN
notes: not shown: HA tag at the N-terminal

Columns and labels:
[1] = tested on: Embryonic fibroblasts (MEFs) from wild-type and synoviolin gene-deficient mice; assay: Effect of a γ-secretase inhibitor on cell proliferation activity (Alamer Blue) in wild-type and synoviolin-deficient MEFs; assay type: cell-based, mouse; settings: MEFs 1×10^3 cells/well, treated 24 hours, Alamer Blue absorbance after 2 hours; Syno −/− compared with Syno +/+ (FIG. 5)
Description: Since there are ethical objections to sensitivity measurement tests using the brains of Alzheimer's patients, another evaluation system needs to be used for evaluating the sensitivity of the secretase inhibitor. The inventors therefore used an evaluation system in which cells were treated with a secretase inhibitor and cell proliferation was used as the marker of secretase inhibition. There are no particular limits on the type of secretase here, and examples include β-secretase and γ-secretase. Consequently, the secretase inhibitor can be either a β-secretase inhibitor or a γ-secretase inhibitor. There are no particular limits on the secretase inhibitor, and examples include L-685,458 (Peptide Institute), (3,5-Difluorophenylacetyl)-Ala-Phg-OBu^t [DAPT] (Peptide Institute), Lys-Thr-Glu-Glu-Ile-Ser-Glu-Val-Asn-Sta-Val-Ala-Glu-Phe (Peptide Institute), Z-Leu-Leu-Nle-CHO (Wako) and the like.
Secretase activity is judged to have been inhibited when cell proliferation activity is suppressed. […]
Embryonic fibroblasts (MEFs) obtained from synoviolin gene-introduced mice (wild-type mice) and synoviolin gene-deficient mice were inoculated to 1×10^3 cells/well on 96-well plates, and cultured overnight. After culture the cells were treated with a γ-secretase inhibitor (Z-Leu-Leu-Nle-CHO, Wako) and cultured for 24 hours, after which Alamer Blue was added and absorbance was measured after 2 hours.

FLAG-tagged synoviolin = target: T1, FLAG-tagged synoviolin (human, UniProt Q86TM6 1-617); assay: co-immunoprecipitation (anti-HA or anti-FLAG) and Western blotting from HEK293T cells
T1 construct: not shown: FLAG tag
Description: An HA tag was attached to the N-terminal of this gene, which was inserted into a pcDNA3 vector. Next, Ha-tagged Herp, Herp(-bind) and a blank vector were each strongly expressed together with FLAG-tagged synoviolin in HEK293T cells. After 24 hours whole cell extract (WCE) was extracted, expression of each protein was confirmed, and immunoprecipitation was performed with anti-HA antibodies or anti-FLAG antibodies.

T1 sequence (Q86TM6 whole entry E545G): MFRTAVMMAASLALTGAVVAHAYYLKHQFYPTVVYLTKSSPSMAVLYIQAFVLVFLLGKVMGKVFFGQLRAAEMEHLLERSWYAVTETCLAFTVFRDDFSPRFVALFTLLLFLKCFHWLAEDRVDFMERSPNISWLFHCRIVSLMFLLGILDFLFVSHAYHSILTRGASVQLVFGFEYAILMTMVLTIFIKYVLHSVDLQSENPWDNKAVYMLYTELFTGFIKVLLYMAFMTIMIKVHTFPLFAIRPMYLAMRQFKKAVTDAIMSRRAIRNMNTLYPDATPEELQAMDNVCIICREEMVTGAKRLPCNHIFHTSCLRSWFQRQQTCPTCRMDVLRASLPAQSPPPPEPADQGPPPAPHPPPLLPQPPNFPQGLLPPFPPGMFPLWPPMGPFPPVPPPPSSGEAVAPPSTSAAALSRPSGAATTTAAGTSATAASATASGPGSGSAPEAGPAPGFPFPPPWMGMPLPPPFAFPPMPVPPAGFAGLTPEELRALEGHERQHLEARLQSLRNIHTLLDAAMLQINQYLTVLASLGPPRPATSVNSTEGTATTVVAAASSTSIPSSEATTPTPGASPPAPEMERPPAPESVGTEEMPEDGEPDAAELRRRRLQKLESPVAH

Row | Molecule | effect of the γ-secretase inhibitor on cell proliferation activity [1] | binding result (FLAG-tagged synoviolin)
1 | CCCC[C@@H](C=O)NC(=O)[C@H](CC(C)C)NC(=O)[C@H](CC(C)C)NC(=O)OCc1ccccc1 [Z-Leu-Leu-Nle-CHO] (Cbz-Leu-Leu-[Nle]-aldehyde) | greater in the cells derived from synoviolin-deficient mice than in the cells derived from wild-type mice | –
2 | B1 | – | no binding

Source: patent US20070275887A1, “Method of Inhibiting Secretase Activity” (priority 2003, published 2007)
